Consider eight molecules from patent publication US7659304B2, “Tryptophan derivative and application thereof” (priority 2005, dated 2010).

A word on the melting point: it is the temperature, or range, at which the solid turns liquid.

Data set [1] relates to osteoclasts. Nature of the data set: Influence on osteoclasts: tartrate-resistant acid phosphatase (TRAP) activity in cultured goldfish scales. In kind it is cell-based. As to conditions: for TRAP activity: Amount of para-nitrophenol produced (mean ± standard error): 10^−6 M, scales cultured at 25° C. for 6 hours, control 0.700 ± 0.041. On the procedure: The influence of the tryptophan derivatives on bone cells was tested according to a method described in N. Suzuki and A. Hattori, J. Pineal Res., 33, 253-258 (2002). Required pieces of scales were ablated from female goldfish (body weight: around 30 g) under anesthesia with MS222 (ethyl 3-aminobenzoate, methane sulfonic acid salt) (Aldrich). The scales were washed twice with an Eagle's minimum essential medium (Dainippon Pharmaceutical Co., Ltd.) containing 1% antibiotic (penicillin-streptomycin mixture). The same medium was added at 1 ml/well to a 24-well plate. The scales were added at several pieces (usually eight)/well thereto. Each tryptophan derivative was added at a concentration of 10^−6 M to each well. Subsequently, these scales were cultured at 25° C. for 6 hours. A tryptophan derivative-free group (control) was also prepared to compare the effects on bone cells. In this test, two groups, one for osteoclasts and the other for osteoblasts, were used for the tryptophan derivatives and compared them with the control. To ensure the obtained results, the duplicate test was performed. Thus, in the 24-well plate, 6 tryptophan derivatives can be examined. After culture, the medium was removed. The scales were fixed by the addition of 0.05 M cacodylic acid buffer (pH 7.4) containing 10% formalin. These scales were stored in 0.05 M cacodylic acid buffer at 4° C. until enzyme activity measurement. • (1) Influence on Osteoclasts: Tartrate-Resistant Acid Phosphatase (TRAP) Activity Measurement The scales treated by fixation were moved and weighed. After measurement, the scales were put into a 96-well microplate. To each well, 2001 of 100 mM acetate buffer (pH 5.3) containing 20 mM tartrate and 10 mM para-nitrophenol phosphate (substrate) was added. Reaction was performed at 25° C. for 20 minutes and subsequently terminated by the addition of a 3 M sodium hydroxide aqueous solution (50±1). Then, […] of the solution after the completion of reaction was transferred to another microplate. The amount of para-nitrophenol (p-NP) produced by TRAP was measured with a spectrophotometer (405 nm). The osteoclast activity was indicated as the amount of p-NP produced by the decomposition of para-nitrophenol phosphate per g of scale per minute.

Data set [2] relates to osteoblasts. In words: Influence on osteoblasts: alkaline phosphatase (ALP) activity in cultured goldfish scales. In kind it is cell-based. The note with it: for ALP activity: Amount of para-nitrophenol produced (mean ± standard error): 10^−6 M, scales cultured at 25° C. for 6 hours, control 1.37 ± 0.18. The method, then: The influence of the tryptophan derivatives on bone cells was tested according to a method described in N. Suzuki and A. Hattori, J. Pineal Res., 33, 253-258 (2002). Required pieces of scales were ablated from female goldfish (body weight: around 30 g) under anesthesia with MS222 (ethyl 3-aminobenzoate, methane sulfonic acid salt) (Aldrich). The scales were washed twice with an Eagle's minimum essential medium (Dainippon Pharmaceutical Co., Ltd.) containing 1% antibiotic (penicillin-streptomycin mixture). The same medium was added at 1 ml/well to a 24-well plate. The scales were added at several pieces (usually eight)/well thereto. Each tryptophan derivative was added at a concentration of 10^−6 M to each well. Subsequently, these scales were cultured at 25° C. for 6 hours. A tryptophan derivative-free group (control) was also prepared to compare the effects on bone cells. In this test, two groups, one for osteoclasts and the other for osteoblasts, were used for the tryptophan derivatives and compared them with the control. To ensure the obtained results, the duplicate test was performed. Thus, in the 24-well plate, 6 tryptophan derivatives can be examined. After culture, the medium was removed. The scales were fixed by the addition of 0.05 M cacodylic acid buffer (pH 7.4) containing 10% formalin. These scales were stored in 0.05 M cacodylic acid buffer at 4° C. until enzyme activity measurement. • (1) […] The scales treated by fixation were moved and weighed. After measurement, the scales were put into a 96-well microplate. To each well, 2001 of 100 mM tris-HCl buffer (pH 9.5) containing 10 mM para-nitrophenol phosphate (substrate), 1 mM magnesium chloride, and 0.1 mM zinc chloride was added. Reaction was performed at 25° C. for 15 minutes and terminated by the addition of a 3 M sodium hydroxide aqueous solution (50 μl). Then, 150 μl of the solution after the completion of reaction was transferred to another microplate. The amount of p-NP produced by ALP was measured with a spectrophotometer (405 nm) to determine the activity.

The test system of data set [3] is osteoclasts. The note with it: literature report; cited from earlier work.
For data set [4], the system named is osteoblasts. As to conditions: literature report; cited from earlier work.
Data set [5] relates to bone metabolism of ovariectomized model rat. Nature of the data set: Effect on bone metabolism of ovariectomized model rat (femur pQCT). In kind it is in vivo. As to conditions: OVX rats, 0.17 mg/rat by gavage once a day for 6 weeks. The method, then: A test substance was the compound No. 4 ((S)-(+)-N-acetyl-2,4,6-tribromo-5-methoxytryptophan methyl ester), which was a white powder having a molecular weight of 527, and was stored at room temperature. Commercially available dimethyl sulfoxide (DMSO, Wako Pure Chemical Industries, Ltd.) was purchased as a solvent and stored at room temperature. • 2. Method for Preparing Test Substance
The solution of the test substance was administered in a volume of 100 μL/rat in consideration of the toxicity of the solvent. For a dose of 0.17 mg of the test substance (compound No. 4)/rat, 86.6 mg of the test substance was weighed and dissolved in 50.9 mL of the solvent (0.17 mg/0.1 mL). • 3. Animal Used and Raising Conditions
Five-week-old female SPF SD (Crl:SD) rats were obtained from Charles River Laboratories Japan, Inc. After seven-day acclimation and quarantine, 6-week-old ovariectomized models were prepared. Administration was performed from the day following model preparation.
The animals were raised in the rat/mouse room of a test laboratory set to a temperature of 24±3° C., a humidity of 50±20%, the number of ventilations of approximately 10 to 20 times/hour, a lighting time of 12 hours/day (8:00 light on, 20:00 light off), and an illuminance of 150 to 300 Lux. • 4. Administration Method
The test substance was administered once a day for 6 weeks by gavage administration to the rats without anesthesia under non-fasting by use of a feeding needle made of a metal and a syringe barrel. In this context, 1 week is defined as 7 days, and the day following ovariectomy when the administration was initiated is defined as Day 1. The amount of the solution administered was set to 0.1 mL/rat.
The bone densities of the left femurs were measured using a peripheral bone density measurement apparatus PQCT (abbreviation of peripheral Quantitative Computed Tomography, XCT-Research SA+, Stratec). For cancellous bone parameter measurement, the metaphyseal region was sliced at a distance of 3 mm from the distal growth cartilage. Alternatively, for cortical bone parameter measurement, the diaphyseal region was sliced at a distance of 13 mm therefrom. The measurement parameters were a bone density (total density and cancellous bone), an area (total area and cancellous bone), and SSI (Stress Strain Index) for the metaphyseal region and were the bone density, area, and thickness of the cortical bone, a periosteal circumference length, an endosteal circumference length, and SSI for the diaphyseal region. Software used was Rev.5.50e.

The structures appear in SMILES notation.

For the molecule `C=CCn1c(Br)c(C[C@H](NC(C)=O)C(=O)OC)c2c(Br)c(OC)c(Br)cc21` [Compound 6, (S)-(+)-N-acetyl-1-allyl-2,4,6-tribromo-5-methoxytryptophan methyl ester], in the data set with osteoclasts [1], the “TRAP activity: Amount of para-nitrophenol produced (mean ± standard error)” value (“TRAP activity: Amount … (mean ± standard error)” below) is given as 0.882 ± 0.106 nmol/g of scale/min. Further, the “ALP activity: Amount of para-nitrophenol produced (mean ± standard error)” value (“ALP activity: Amount … (mean ± standard error)” for short) in the data set with osteoblasts [2] was 2.39 ± 0.40 nmol/g of scale/min.

Molecule `COC(=O)[C@H](Cc1c(Br)[nH]c2cc(Br)c(OC)cc12)NC(C)=O` [Compound 2, (S)-(+)-N-acetyl-2,6-dibromo-5-methoxytryptophan methyl ester] gave a melting point of 174 to 175 °C.

Regarding `COC(=O)[C@H](Cc1c(Br)[nH]c2c(Br)cc(OC)c(Br)c12)NC(C)=O` [Compound 3, (S)-(+)-N-acetyl-2,4,7-tribromo-5-methoxytryptophan methyl ester], the melting point is 218 to 220 °C.

Turning to `COC(=O)[C@H](Cc1c(Br)n(Cc2ccccc2)c2cc(Br)c(OC)c(Br)c12)NC(C)=O` [Compound 8, (S)-(+)-N-acetyl-1-benzyl-2,4,6-tribromo-5-methoxytryptophan methyl ester], the “TRAP activity: Amount … (mean ± standard error)” value with osteoclasts [1] is listed as 0.829 ± 0.047 nmol/g of scale/min. In addition, the “ALP activity: Amount … (mean ± standard error)” value with osteoblasts [2] is 1.17 ± 0.32 nmol/g of scale/min.

With `C#CCn1c(Br)c(C[C@H](NC(C)=O)C(=O)OC)c2c(Br)c(OC)c(Br)cc21` [Compound 7, (S)-(+)-N-acetyl-2,4,6-tribromo-5-methoxy-1-propargyltryptophan methyl ester], the “TRAP activity: Amount … (mean ± standard error)” value in the data set with osteoclasts [1] is recorded as 0.838 ± 0.056 nmol/g of scale/min. Besides, the “ALP activity: Amount … (mean ± standard error)” value with osteoblasts [2] was 2.50 ± 0.51 nmol/g of scale/min.

As for `COC(=O)[C@H](Cc1c(Br)n(C(=O)OC(C)(C)C)c2cc(Br)c(OC)c(Br)c12)NC(C)=O` [Compound 5, (S)-(+)-N-acetyl-2,4,6-tribromo-1-t-butoxycarbonyl-5-methoxytryptophan methyl ester], the “TRAP activity: Amount … (mean ± standard error)” value with osteoclasts [1] is on record as 0.747 ± 0.063 nmol/g of scale/min. In addition, the “ALP activity: Amount … (mean ± standard error)” value with osteoblasts [2] is reported as 2.48 ± 0.42 nmol/g of scale/min.

Take `COc1ccc2[nH]cc(CCNC(C)=O)c2c1` [Melatonin, N-acetyl-5-methoxytryptamine, reference compound]: the “action on osteoclasts (in words), reported in Non-Patent Document 1” value in the data set with osteoclasts [3] is given as “inhibitory”. The “action on osteoblasts (in words), reported in Non-Patent Document 1” value in the data set on osteoblasts [4] is “inhibitory”. Besides, the “TRAP activity: Amount … (mean ± standard error)” value with osteoclasts [1] is 0.467 ± 0.052 nmol/g of scale/min. Besides, in the data set on osteoclasts [1] (conclusion from Table 1), the “action on osteoclasts (in words)” value is on record as “inhibitory”. Moreover, the “ALP activity: Amount … (mean ± standard error)” value in the data set with osteoblasts [2] is given as 1.06 ± 0.17 nmol/g of scale/min. In the data set with osteoblasts [2] (conclusion from Table 2), the “action on osteoblasts (in words)” value is given as “inhibitory”.

Molecule `COC(=O)[C@H](Cc1c(Br)[nH]c2cc(Br)c(OC)c(Br)c12)NC(C)=O` [Compound 4, (S)-(+)-N-acetyl-2,4,6-tribromo-5-methoxytryptophan methyl ester] registered a melting point of 198 to 199 °C. The “TRAP activity: Amount … (mean ± standard error)” value in the data set with osteoclasts [1] is reported as 0.699 ± 0.064 nmol/g of scale/min. For the same molecule, in data set [5], the “bone density of the cancellous bone (metaphyseal region) compared with OVX + Vehicle group (in words)” value is “increased”, the “change in the diaphyseal region compared with OVX + Vehicle group (in words)” value is on record as “no change” and the “total bone density of the metaphyseal region compared with OVX + Vehicle group (in words)” value is “increased”. Further, the “Diaphyseal region SSI Polar” value in data set [5] (left femur, OVX + Vehicle 6.753 ± 0.380) is 6.877 ± 0.605. Also, the “Diaphyseal region Endosteal circumference length” value in data set [5] (left femur, OVX + Vehicle 8.360 ± 0.467) is recorded as 8.260 ± 0.666 mm. Moreover, the “Metaphyseal region Area Cancellous bone” value in data set [5] (left femur, OVX + Vehicle 9.47 ± 1.52) is recorded as 7.44 ± 0.47 mm^2. Further, the “Metaphyseal region SSI Polar” value in data set [5] (left femur, OVX + Vehicle 9.801 ± 0.574) came to 11.474 ± 0.346. The “Diaphyseal region Periosteal circumference length” value in data set [5] (left femur, OVX + Vehicle 11.819 ± 0.333) was 11.729 ± 0.455 mm. The “Metaphyseal region Area Total area” value in data set [5] (left femur, OVX + Vehicle 21.69 ± 1.61) came out at 23.67 ± 1.34 mm^2. In data set [5] (left femur, OVX + Vehicle 192.9 ± 24.6), the “Metaphyseal region Bone density Cancellous bone” value was 253.4 ± 2.9 mg/mL. Further, the “Metaphyseal region Bone density Total density” value in data set [5] (left femur, OVX + Vehicle 473.1 ± 29.3) came out at 520.4 ± 31.7 mg/mL. Further, the “Diaphyseal region Thickness” value in data set [5] (cortical bone, left femur, OVX + Vehicle 0.551 ± 0.021) was 0.552 ± 0.038 mm. Further, in data set [5] (cortical bone, left femur, OVX + Vehicle 5.55 ± 0.02), the “Diaphyseal region Area” value is listed as 5.50 ± 0.17 mm^2. Also, the “Diaphyseal region Bone density” value in data set [5] (cortical bone, left femur, OVX + Vehicle 1265.7 ± 15.9) amounted to 1254.9 ± 14.6 mg/mL. Further, in the data set on osteoblasts [2], the “ALP activity: Amount … (mean ± standard error)” value was 2.62 ± 0.20 nmol/g of scale/min.
